Laboratory results: BindingDB's records for PubMed 10496952 (University of Virginia, 1999)
Values joined by “and” are separate entries in the source; they are usually repeats but may differ in a detail not shown here. Equal values may be shown once.

How the values were obtained:
Adenosine receptor A2b = target: T1, Adenosine receptor A2b (Homo sapiens, UniProt P29275)
T1 sequence (P29275 whole entry): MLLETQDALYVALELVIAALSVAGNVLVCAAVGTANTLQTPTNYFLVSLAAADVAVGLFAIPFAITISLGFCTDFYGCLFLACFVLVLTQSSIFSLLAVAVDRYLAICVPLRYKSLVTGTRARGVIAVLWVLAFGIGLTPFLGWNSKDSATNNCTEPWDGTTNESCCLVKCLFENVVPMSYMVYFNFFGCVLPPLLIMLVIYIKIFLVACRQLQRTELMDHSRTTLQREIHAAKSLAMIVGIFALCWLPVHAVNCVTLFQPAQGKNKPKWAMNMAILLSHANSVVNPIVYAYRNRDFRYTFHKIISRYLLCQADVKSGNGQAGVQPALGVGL

Adenosine receptor A1 = target: T2, Adenosine receptor A1 (Homo sapiens, UniProt P30542)
T2 sequence (P30542 whole entry): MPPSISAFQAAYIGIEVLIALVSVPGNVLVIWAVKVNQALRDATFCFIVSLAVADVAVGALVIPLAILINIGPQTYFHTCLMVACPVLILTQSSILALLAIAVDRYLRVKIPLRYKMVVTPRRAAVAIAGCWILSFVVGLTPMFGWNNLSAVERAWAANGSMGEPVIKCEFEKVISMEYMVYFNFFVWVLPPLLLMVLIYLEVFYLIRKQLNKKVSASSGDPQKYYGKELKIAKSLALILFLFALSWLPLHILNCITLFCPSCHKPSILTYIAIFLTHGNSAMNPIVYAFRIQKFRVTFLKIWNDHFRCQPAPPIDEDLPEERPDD

Adenosine receptor A3 = target: T3, Adenosine receptor A3 (Homo sapiens, UniProt P0DMS8)
T3 sequence (P0DMS8 whole entry): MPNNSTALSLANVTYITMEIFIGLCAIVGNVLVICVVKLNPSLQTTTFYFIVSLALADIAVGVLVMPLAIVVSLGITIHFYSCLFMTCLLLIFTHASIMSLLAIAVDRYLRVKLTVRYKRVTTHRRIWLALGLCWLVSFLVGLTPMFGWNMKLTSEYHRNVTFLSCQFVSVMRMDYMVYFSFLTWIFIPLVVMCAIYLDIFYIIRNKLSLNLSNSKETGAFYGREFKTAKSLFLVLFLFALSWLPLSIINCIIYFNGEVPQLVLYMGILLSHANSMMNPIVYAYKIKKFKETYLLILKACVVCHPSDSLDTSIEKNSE

Adenosine receptor A2a = Adenosine receptor A2a (Homo sapiens, UniProt P29274)
Adenosine receptor A2a, sequence (P29274 whole entry): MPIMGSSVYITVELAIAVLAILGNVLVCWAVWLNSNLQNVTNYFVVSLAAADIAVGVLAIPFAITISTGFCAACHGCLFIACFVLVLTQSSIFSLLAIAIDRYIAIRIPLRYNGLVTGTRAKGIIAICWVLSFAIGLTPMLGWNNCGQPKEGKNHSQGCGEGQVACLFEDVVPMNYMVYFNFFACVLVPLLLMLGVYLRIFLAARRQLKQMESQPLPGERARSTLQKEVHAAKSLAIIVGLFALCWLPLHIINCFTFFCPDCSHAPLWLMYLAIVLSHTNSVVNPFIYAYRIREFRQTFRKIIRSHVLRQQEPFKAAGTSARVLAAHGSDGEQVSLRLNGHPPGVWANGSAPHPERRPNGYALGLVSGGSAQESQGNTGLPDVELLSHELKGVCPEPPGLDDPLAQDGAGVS

| SMILES | Ki (Adenosine receptor A2b) | further results |
| --- | --- | --- |
| CCCn1c(=O)c2[nH]c(-c3ccc(C=CC(=O)O)cc3)nc2n(CCC)c1=O [NSC_129447] | 51.6 nM | – |
| CCCn1c(=O)c2nc(-c3ccc(OCC(=O)O)cc3)[nH]c2n(Cc2ccc(N)c(I)c2)c1=O [NSC_163889] | 40 nM and 30 nM | Ki (Adenosine receptor A1): 70 nM; Ki (Adenosine receptor A3): 15 nM; Ki (Adenosine receptor A2a): 95 nM |
| Nc1ccc(CCNc2nc(N)c3ncn(C4OC(CO)C(O)C4O)c3n2)cc1I (stereo unspecified) [CAS_190964] | > 10000 nM | – |
| CCNC(=O)C(=O)Nc1nc(Nc2ccccc2)c2ncn([C@@H]3O[C@H](CO)[C@@H](O)[C@H]3O)c2n1 [AB-NECA] | > 10000 nM | – |
| CCCn1c(=O)[nH]c(=O)c2[nH]cnc21 [3-Propylxanthine (enprofylline)] | – | Ki (Adenosine receptor A1): > 10000 nM |
| Nc1nc(Cl)nc2c1ncn2[C@@H]1O[C@H](CO)[C@H](O)C1O (stereo partly specified) [2-Chloroadenosine] | > 10000 nM | – |
| CCn1c(=O)c2[nH]c(-c3ccccc3)nc2n(CC)c1=O [1,3-Diethyl-8-phenyl-3,7-dihydro-purine-2,6-dione] | 12.3 nM | – |
| CCCn1c(=O)c2nc[nH]c2n(CCC)c1=O | – | Ki (Adenosine receptor A3): 509 nM |
